For data set [1] the following is noted: cited from earlier work.
Data set [2] is described as follows: Abiraterone acetate stability with and without milling, total impurities by HPLC. The class given is physicochemical. To be noted: 80° C., 4 hrs. From the text:
The impurity growth in the DPI and tablets containing fine particle abiraterone acetate is due to oxidative degradation of abiraterone acetate. […] The faster degradation in tablets containing fine particle abiraterone acetate could arise from a number of sources, including, but not limited to: greater surface area of the API, higher proportion of excipient relative to the API, and differences in excipients.

As for `CC(=O)O[C@H]1CC[C@@]2(C)C(=CC[C@@H]3[C@@H]2CC[C@]2(C)C(c4cccnc4)=CC[C@@H]32)C1` [Abiraterone Acetate (API), 17-(3-Pyridyl) androsta-5, acetate], the water solubility result in data set [1] was “poorly water soluble”. Besides, the “Total impurities by HPLC” value in data set [2] (Milling none) is 0.23 % AUC; in data set [2] (SPEX shaker mill), 0.17 % AUC.

These data come from patent publication US9889144B2, “Abiraterone acetate formulation and methods of use” (iCeutica Inc., priority 2013, dated 2018).
